BigSolDB 2.1

Molecule `O=[N+]([O-])c1ccc(S(=O)(=O)[O-])cc1.[Na+]` has a solubility (mole fraction) (in THF, 283.15 K) of 0.000109, a solubility (mole fraction) (in THF, 288.15 K) of 0.000112 and a solubility (mole fraction) (in THF, 293.15 K) of 0.000117. For the same molecule, the solubility (mole fraction) (in THF, 298.15 K) was 0.000122, the solubility (mole fraction) (in THF, 303.15 K) was 0.000127 and the solubility (mole fraction) (in THF, 308.15 K) was 0.000132. It also gave a solubility (mole fraction) (in THF, 313.15 K) of 0.000138, a solubility (mole fraction) (in THF, 318.15 K) of 0.000145 and a solubility (mole fraction) (in THF, 323.15 K) of 0.000156. The solubility (mole fraction) (in acetone, 283.15 K) was 0.012, the solubility (mole fraction) (in acetone, 288.15 K) was 0.014 and the solubility (mole fraction) (in acetone, 293.15 K) was 0.0161. It also gave a solubility (mole fraction) (in acetone, 298.15 K) of 0.0182, a solubility (mole fraction) (in acetone, 303.15 K) of 0.0206 and a solubility (mole fraction) (in acetone, 308.15 K) of 0.0229. It also gave a solubility (mole fraction) (in acetone, 313.15 K) of 0.0258, a solubility (mole fraction) (in acetone, 318.15 K) of 0.029 and a solubility (mole fraction) (in acetone, 323.15 K) of 0.0323. It also gave a solubility (mole fraction) (in cyclohexanone, 283.15 K) of 0.000906, a solubility (mole fraction) (in cyclohexanone, 288.15 K) of 0.000913 and a solubility (mole fraction) (in cyclohexanone, 293.15 K) of 0.000917. The solubility (mole fraction) (in cyclohexanone, 298.15 K) was 0.000927, the solubility (mole fraction) (in cyclohexanone, 303.15 K) was 0.000938 and the solubility (mole fraction) (in cyclohexanone, 308.15 K) was 0.000954. It also gave a solubility (mole fraction) (in cyclohexanone, 313.15 K) of 0.000967, a solubility (mole fraction) (in cyclohexanone, 318.15 K) of 0.000991 and a solubility (mole fraction) (in cyclohexanone, 323.15 K) of 0.00101. The solubility (mole fraction) (in ethanol, 283.15 K) was 0.00104, the solubility (mole fraction) (in ethanol, 288.15 K) was 0.00118 and the solubility (mole fraction) (in ethanol, 293.15 K) was 0.00133. For the same molecule, the solubility (mole fraction) (in ethanol, 298.15 K) was 0.00147, the solubility (mole fraction) (in ethanol, 303.15 K) was 0.00164 and the solubility (mole fraction) (in ethanol, 308.15 K) was 0.0018. The solubility (mole fraction) (in ethanol, 313.15 K) was 0.00204, the solubility (mole fraction) (in ethanol, 318.15 K) was 0.00232 and the solubility (mole fraction) (in ethanol, 323.15 K) was 0.0026. For the same molecule, the solubility (mole fraction) (in ethyl acetate, 283.15 K) was 8.84e-05, the solubility (mole fraction) (in ethyl acetate, 288.15 K) was 9.96e-05 and the solubility (mole fraction) (in ethyl acetate, 293.15 K) was 0.000109. The solubility (mole fraction) (in ethyl acetate, 298.15 K) was 0.00012, the solubility (mole fraction) (in ethyl acetate, 303.15 K) was 0.000131 and the solubility (mole fraction) (in ethyl acetate, 308.15 K) was 0.000143. The solubility (mole fraction) (in ethyl acetate, 313.15 K) was 0.000157, the solubility (mole fraction) (in ethyl acetate, 318.15 K) was 0.000175 and the solubility (mole fraction) (in ethyl acetate, 323.15 K) was 0.000193. For the same molecule, the solubility (mole fraction) (in n-butanol, 283.15 K) was 0.000318, the solubility (mole fraction) (in n-butanol, 288.15 K) was 0.000405 and the solubility (mole fraction) (in n-butanol, 293.15 K) was 0.000498. It also gave a solubility (mole fraction) (in n-butanol, 298.15 K) of 0.000597, a solubility (mole fraction) (in n-butanol, 303.15 K) of 0.000699 and a solubility (mole fraction) (in n-butanol, 308.15 K) of 0.000798. For the same molecule, the solubility (mole fraction) (in n-butanol, 313.15 K) was 0.000947, the solubility (mole fraction) (in n-butanol, 318.15 K) was 0.00111 and the solubility (mole fraction) (in n-butanol, 323.15 K) was 0.00131.
